Test results as given in patent US20250136596A1, “MEMBRANE-ASSOCIATED TYROSINE- AND THREONINE-SPECIFIC CDC2-INHIBITORY KINASE (PKMYT1) INHIBITORS AND USES THEREOF” (Insilico Medicine IP Limited, priority 2022, published 2025).
pIC50: −log10 of the molar value.

What follows are compounds tested against PKMYT1 (Homo sapiens (Human), UniProt Q99640) (assay: PKMYT1 HTRF Assay). Settings: Tracer 178, GST-Tb; compound 10 μM to 0.5 nM; read-out: MYT1 HTRF IC50.
Format: binding
Description: Example A: PKMYT1 HTRF Assay
Compound serial dilution is performed by Echo, and the final concentrations vary from 10 μM to 0.5 nM. This was filled by the addition of 5 μL/well of Enzyme solution to the assay plate containing the compound. The plate was centrifuged at 1000 rpm for 1 minute, and incubate 15 minutes at 25 ? . Then 5 μL/well of tracer solution (Tracer 178) was added to initiate the reaction, and incubate for 60 minutes at 25° C. Next 5 μL GST-Tb was added into the assay plate, the plate was centrifuged at 1000 rpm for 1 minute, and incubate for 15 minutes at 25 ? . The assay plate was read on Envision.

Chain of PKMYT1 (Q99640 whole entry): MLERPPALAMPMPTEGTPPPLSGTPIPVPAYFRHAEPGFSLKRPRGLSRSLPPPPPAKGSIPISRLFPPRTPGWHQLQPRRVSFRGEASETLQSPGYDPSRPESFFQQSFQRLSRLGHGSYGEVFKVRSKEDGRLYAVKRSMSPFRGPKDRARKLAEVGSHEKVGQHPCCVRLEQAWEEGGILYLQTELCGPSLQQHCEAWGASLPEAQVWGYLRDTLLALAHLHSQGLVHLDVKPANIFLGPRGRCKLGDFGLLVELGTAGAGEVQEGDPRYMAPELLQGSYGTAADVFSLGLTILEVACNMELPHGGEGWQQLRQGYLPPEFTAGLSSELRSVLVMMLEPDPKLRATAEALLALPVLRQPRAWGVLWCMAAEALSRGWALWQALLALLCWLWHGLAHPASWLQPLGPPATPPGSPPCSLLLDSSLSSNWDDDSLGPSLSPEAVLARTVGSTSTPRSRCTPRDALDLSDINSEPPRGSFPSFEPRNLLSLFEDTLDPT

| SMILES | pIC50 |
| --- | --- |
| Cc1ccc(O)c(C)c1-c1cnc2[nH]c(-c3cnc(O)nc3)cc2c1C#N [Example 52, (R)-5-(3-hydroxy-2,6-dimethylphenyl)-2-(2-hydroxypyrimidin-5-yl)-1H-pyrrolo[2,3-b]pyridine-4-carbonitrile] | > 8.00 |
| Cc1ccc(O)c(C)c1-c1cnc2[nH]c(-c3cnc(OC(F)F)nc3)cc2c1C#N [Example 85, 2-(2-(difluoromethoxy)pyrimidin-5-yl)-5-(3-hydroxy-2,6-dimethylphenyl)-1H-pyrrolo[2,3-b]pyridine-4-carbonitrile] | > 8.00 |
| Cc1ccc(O)c(C)c1-c1cnc2[nH]c(-c3cnc(N4CCCC4CO)nc3)c(Cl)c2c1C#N (centres unmarked) [Example 74, 3-chloro-5-(3-hydroxy-2,6-dimethylphenyl)-2-(2-(2-(hydroxymethyl)pyrrolidin-1-yl)pyrimidin-5-yl)-1H-pyrrolo[2,3-b]pyridine-4-carbonitrile] | > 8.00 |
| CCc1c(O)ccc(C)c1-c1cnc2[nH]c(-c3cnc(C)nc3)cc2c1C#N [Example 90, 5-(2-ethyl-3-hydroxy-6-methylphenyl)-2-(2-methylpyrimidin-5-yl)-1H-pyrrolo[2,3-b]pyridine-4-carbonitrile] | 6.30 to 7.30 |
| Cc1ccc(O)c(C)c1-c1cnc2[nH]c(-c3cnc(N)nc3)c(C)c2c1C#N [Example 106, (R)-2-(2-aminopyrimidin-5-yl)-5-(3-hydroxy-2,6-dimethylphenyl)-3-methyl-1H-pyrrolo[2,3-b]pyridine-4-carbonitrile] | > 8.00 |
| Cc1ccc(O)c(C)c1-c1cnc2[nH]c(-c3cnc(N4CC5CC4CO5)nc3)c(Cl)c2c1C#N (centres unmarked) [Example 44, 2-(2-(2-oxa-5-azabicyclo[2.2.1]heptan-5-yl)pyrimidin-5-yl)-3-chloro-5-(3-hydroxy-2,6-dimethylphenyl)-1H-pyrrolo[2,3-b]pyridine-4-carbonitrile] | > 8.00 |
| Cc1ccc(O)c(C)c1-c1cnc2[nH]c(-c3cnc(N(C)C)nc3)c(Cl)c2c1C#N [Example 50, (S)-3-chloro-2-(2-(dimethylamino)pyrimidin-5-yl)-5-(3-hydroxy-2,6-dimethylphenyl)-1H-pyrrolo[2,3-b]pyridine-4-carbonitrile] | > 8.00 |
| Cc1ccc(-c2cc3cc(-c4c(C)ccc(O)c4C)cnc3[nH]2)cn1 [Example 5, 2,4-dimethyl-3-(2-(6-methylpyridin-3-yl)-1H-pyrrolo[2,3-b]pyridin-5-yl)phenol] | 7.30 to 8.00 |
| Cc1ncc(-c2cc3c(N)c(-c4c(C)ccc(O)c4C)cnc3[nH]2)cn1 [Example 30, 3-(4-amino-2-(2-methylpyrimidin-5-yl)-1H-pyrrolo[2,3-b]pyridin-5-yl)-2,4-dimethylphenol] | 6.30 to 7.30 |
| Cc1ccc(O)c(C)c1-c1cnc2[nH]c(-c3cnc(N4CCC(F)(F)C4)nc3)cc2c1C#N [Example 37, 2-(2-(3,3-difluoropyrrolidin-1-yl)pyrimidin-5-yl)-5-(3-hydroxy-2,6-dimethylphenyl)-1H-pyrrolo[2,3-b]pyridine-4-carbonitrile] | > 8.00 |
| Cc1ccc(O)c(C)c1-c1cnc2[nH]c(-c3cn[nH]c(=O)c3)cc2c1C#N [Example 134] | > 8.00 |
| Cc1ccc(O)c(C)c1-c1cnc2[nH]c(-c3cnc(CO)nc3)cc2c1C#N [Example 58, (S)-5-(3-hydroxy-2,6-dimethylphenyl)-2-(2-(hydroxymethyl)pyrimidin-5-yl)-1H-pyrrolo[2,3-b]pyridine-4-carbonitrile] | > 8.00 |
| Cc1ccc(O)c(C)c1-c1cnc2[nH]c(-c3nnc[nH]3)cc2c1C#N [Example 135, 5-(3-hydroxy-2,6-dimethylphenyl)-2-(4H-1,2,4-triazol-3-yl)-1H-pyrrolo[2,3-b]pyridine-4-carbonitrile] | > 8.00 |
| Cc1ccc(O)c(C)c1-c1cnc2[nH]c(-c3cnc(C(C)(C)O)nc3)cc2c1 [Example 88, 3-(2-(2-(2-hydroxypropan-2-yl)pyrimidin-5-yl)-1H-pyrrolo[2,3-b]pyridin-5-yl)-2,4-dimethylphenol] | 7.30 to 8.00 |
